Data: the supplement of paper PMC10307832

Assays:
Test in all cases: relative viability (nuclei count vs DMSO), 5 days (fraction); higher = more cells survive
[1] = compound: C[C@@H](C(=O)N[C@@H](C1CCCCC1)C(=O)N2CCC[C@H]2C(=O)N[C@@H]3[C@@H](CC4=CC=CC=C34)OCC#CC#CCO[C@@H]5CC6=CC=CC=C6[C@@H]5NC(=O)[C@@H]7CCCN7C(=O)[C@H](C8CCCCC8)NC(=O)[C@H](C)NC)NC [AZD5582] + CS(=O)(=O)N1CCN(Cc2cc3nc(-c4cccc5[nH]ncc45)nc(N4CCOCC4)c3s2)CC1 [Pictilisib] (partner 1 µM)
In short: (§1)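 Each reported value is a median over duplicate plates. It expresses relative viability: treated-well nuclei count divided by vehicle-well nuclei count. Lung cancer cell lines in 1536-well plates were dosed by pin tool a day after seeding, alone with one drug or with a fixed anchor-drug dose plus five library-drug doses (not always all listed) in √10 steps, and nuclei were counted after 5 days.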

[2] = compound: Cn1nnc2c(C(N)=O)ncn2c1=O [Temozolomide] + CS(=O)(=O)CCNCc1ccc(-c2ccc3ncnc(Nc4ccc(OCc5cccc(F)c5)c(Cl)c4)c3c2)o1 [Lapatinib] (partner 2 µM)
In short: as §1

[3] = compound: C[C@@H](C(=O)N[C@@H](C1CCCCC1)C(=O)N2CCC[C@H]2C(=O)N[C@@H]3[C@@H](CC4=CC=CC=C34)OCC#CC#CCO[C@@H]5CC6=CC=CC=C6[C@@H]5NC(=O)[C@@H]7CCCN7C(=O)[C@H](C8CCCCC8)NC(=O)[C@H](C)NC)NC [AZD5582] + CS(=O)(=O)CCNCc1ccc(-c2ccc3ncnc(Nc4ccc(OCc5cccc(F)c5)c(Cl)c4)c3c2)o1 [Lapatinib] (partner 2 µM)
In short: as §1

[4] = compound: Cn1nnc2c(C(N)=O)ncn2c1=O [Temozolomide] + Cc1nc(NC(=O)N2CCC[C@H]2C(N)=O)sc1-c1ccnc(C(C)(C)C(F)(F)F)c1 [Alpelisib] (partner 2 µM)
In short: as §1

Cell Line | relative viability ([1]; first compound 0.001581 µM) | relative viability ([1]; first compound 0.005 µM) | relative viability ([1]; first compound 0.01581 µM) | relative viability ([1]; first compound 0.05 µM) | relative viability ([2]; first compound 0.2 µM) | relative viability ([2]; first compound 0.6325 µM) | relative viability ([2]; first compound 2 µM) | relative viability ([2]; first compound 6.325 µM) | relative viability ([2]; first compound 20 µM) | relative viability ([3]; first compound 0.001581 µM) | relative viability ([3]; first compound 0.005 µM) | relative viability ([3]; first compound 0.01581 µM) | relative viability ([3]; first compound 0.05 µM) | relative viability ([4]; first compound 0.2 µM) | relative viability ([4]; first compound 0.6325 µM) | relative viability ([4]; first compound 2 µM) | relative viability ([4]; first compound 6.325 µM) | relative viability ([4]; first compound 20 µM)
NCI-H838 | 0.39 | 0.467 | 0.362 | 0.59 | 0.998 | 1.03 | 1.17 | 0.945 | 1.25 | 0.823 | 0.964 | 0.746 | 0.979 | 1.1 | 1.06 | 1.1 | 0.968 | 1.02
NCI-H1299 | 0.702 | 0.879 | 0.822 | 0.805 | 1.03 | 0.98 | 0.994 | 0.97 | 0.962 | 0.846 | 0.883 | 0.971 | 0.812 | 1.11 | 1.11 | 1.14 | 1.04 | 1.05
NCI-H1355 | 0.372 | 0.379 | 0.289 | 0.361 | 1.06 | 1.01 | 0.974 | 1.02 | 0.99 | 0.945 | 0.887 | 0.952 | 0.718 | 0.834 | 0.943 | 0.842 | 0.815 | 0.803
NCI-H1395 | 0.601 | 0.698 |  | 0.632 | 1.07 | 1.19 | 1.5 | 0.903 | 0.968 | 1.08 | 1.07 |  | 1.13 | 1.15 | 1.07 | 1.13 | 1 | 1.06
